We go through four compounds from patent publication US9981976B2, “Piperidine substituted pyrazolo[1,5-A]pyrimidine derivatives with inhibitory activity on the replication of the respiratory syncytial virus (RSV)” (priority 2014, dated 2018).

Data set [1] has as its system rgRSV224 virus. As to the kind of experiment: microbe, parasite or virus in culture. It counts as cell-based, respiratory syncytial virus (RSV). Conditions: human respiratory syncytial virus, HeLa, 72 h, read-out: RSV HELA pEC50, rgRSV224 virus (MOI=1), HeLa cells, GFP expression three days post-virus exposure (converted).
The test system of data set [2] is HeLa cells. As to the kind of experiment: Cytotoxicity in HeLa cells, ATP content (ATPlite kit). As to conditions: three days incubation, CC50 = 50% concentration for cytotoxicity. Background: In ATP-based viability assays light output follows the ATP content of the culture.
Procedure: Black 384-well clear-bottom microtiter plates (Corning, Amsterdam, The Netherlands) were filled via acoustic drop ejection using the echo liquid handler (Labcyte, Sunnyvale, Calif.). 200 nL of compound stock solutions (100% DMSO) were transferred to the assay plates. 9 serial 4-fold dilutions of compound were made, creating per quadrant the same compound concentration. The assay was initiated by adding 10 μL of culture medium to each well (RPMI medium without phenol red, 10% FBS-heat inactivated, 0.04% gentamycin (50 mg/mL). All addition steps are done by using a multidrop dispenser (Thermo Scientific, Erembodegem, Belgium). Next, rgRSV224 virus (MOI=1) diluted in culture medium was added to the plates. rgRSV224 virus is an engineered virus that includes an additional GFP gene (Hallak L K, Spillmann D, Collins P L, Peeples M E. Glycosaminoglycan sulfation requirements for respiratory syncytial virus infection; Journal of virology (2000), 74(22), 10508-13) and was in-licensed from the NIH (Bethesda, Md., USA). Finally, 20 μL of a HeLa cell suspension (3,000 cells/well) were plated. Medium, virus- and mock-infected controls were included in each test. The wells contain 0.05% DMSO per volume. Cells were incubated at 37° C. in a 5% CO2 atmosphere. Three days post-virus exposure, viral replication was quantified by measuring GFP expression in the cells by an in house developed MSM laser microscope (Tibotec, Beerse, Belgium). The EC50 was defined as the 50% inhibitory concentration for GFP expression. In parallel, compounds were incubated for three days in a set of white 384-well microtiter plates (Corning) and the cytotoxicity of compounds in HeLa cells was determined by measuring the ATP content of the cells using the ATPlite kit (Perkin Elmer, Zaventem, Belgium) according to the manufacturer's instructions. The CC50 was defined as the 50% concentration for cytotoxicity.

Usually melting point stands for the temperature, or range, at which the solid turns liquid.

With `Cc1nc(N2CCCCC2c2cc3nc(N4CC(N)C4)c(C)cn3n2)c2c(C)cccc2n1` (stereo not drawn) [P27, 1-(2-(1-(2,5-dimethylquinazolin-4-yl)piperidin-2-yl)-6-methyl-pyrazolo[1,5-a]pyrimidin-5-yl)azetidin-3-amine], the melting point stood at 176.85 °C. In addition, the EC50 in data set [1] is 631 nM. In addition, the “SI TOX HELA” value in data set [2] is 4.5.
As to `Cc1ccc2ncnc(N3CCCCC3c3cc4nc(N5CC(O)C5)c(C)cn4n3)c2c1` (stereo not drawn) [P12, 1-(6-methyl-2-(1-(6-methylquinazolin-4-yl)piperidin-2-yl)pyrazolo-[1,5-a]pyrimidin-5-yl)azetidin-3-ol], the melting point was determined as 233.08 °C. Besides, the EC50 in data set [1] was 200 nM. In addition, the “SI TOX HELA” value in data set [2] is recorded as under 4.
For `Cc1nnn(C)c1-c1nc(N2CCCCC2c2cc3nc(N4CCC4)cc(N4CCOCC4)n3n2)c2c(C)cccc2n1` (stereo not drawn) [P73, 4-(5-(azetidin-1-yl)-2-(1-(2-(1,4-dimethyl-1H-1,2,3-triazol-5-yl)-5-methylquinazolin-4-yl)piperidin-2-yl)pyrazolo[1,5-a]pyrimidin-7-yl)morpholine] the same measures were 238.91 °C, 126 nM and 4.8.
In turn, `Cc1nc2c(N3CCCCC3c3cc4nc(N5CCC5)cc(N5CCOCC5)n4n3)ncnc2s1` (stereo not drawn) [P20, 4-(5-(azetidin-1-yl)-2-(1-(2-methylthiazolo[5,4-d]pyrimidin-7-yl)-piperidin-2-yl)pyrazolo[1,5-a]pyrimidin-7-yl)morpholine] showed a melting point of 229.8 °C. Further, in data set [1], the EC50 was 631 nM. The “SI TOX HELA” value in data set [2] is listed as 5.4.
